Data as given in patent publication US4692525A, “Process for the separation of optical isomers of racemic 1-pyridyl-alkyl-4-aryl piperazines, and optical isomers obtained thereby” (Malesci S.p.A. Istituto Farmacobiologico, priority 1983, dated 1987).

Legend:
[1] = system: post-synaptic alpha-receptors; experiment: Alpha-blocking activity in vitro, isolated rabbit aorta, antagonism of nor-adrenaline response; format: biochemical; details: for pA2 (M ±DS): isolated rabbit aorta, versus nor-adrenaline
Experimental: The aorta isolated from a rabbit and prepared according to the procedure of Furchgott and Bhadrakom (J. Pharm. Exp. Ther. 108, 129; 1953) was tested with cumulative doses of nor-adrenaline till maximum responde obtainable in the absence and in the presence of the three compounds. The pA2 values were calculated according to Ariens and Van Rossum (Arch. Int. Pharmacodyn. 110, 275; 1957)
It is evident from the Table given above that the (+) derivative is 100 times as active as the (-) derivative and almost 3 times as active as the (r) compound in blocking the post-synaptic alpha-receptors response to nor-adrenaline.

[2] = system: Spontaneously hypertensive rats; experiment: Hypotensive activity in vivo, spontaneously hypertensive rats, oral; design: species or system rat; details: for ED50: Rattus norvegicus, 30' after oral administration, obtained from graphs; for anti-hypertensive activity (in words): in vivo, comparison among racemate and isomers
Experimental: Spontaneously hypertensive rats were employed after they were fasted for 16 hours and tested for their systemic pressure by bloodless measurements before and after oral administration of the three compounds at the doses of 5-10-15 mg/kg.
The administration of all the compounds gives rise to a lowering of the dose-dependent hypertension, because the regression coefficients are always significative. The ED50 values in mg/kg, obtained from the graphs of the activities observed, are as follows;

[3] = Acute toxicity, i.p., mice (DL50); format: in vivo; details: mouse, in vivo, ip, i.p. injection, male Swiss mice; Wilcoxon method
Experimental: (§1) Male Swiss mice of 20-25 g body weight were treated by i.p. injection with rated concentrations of the three compounds. The values of DL50 and the relative confidence limits were calculated according to the method of Wilcoxon (J. Pharmac. Exp. Ther. 96, 99; 1949).

Male Swiss mice = experiment: Acute toxicity, i.p., mice (DL50); format: in vivo
Experimental: as §1

SMILES	pA2 (M ±DS) [1]	ED50 ([2]; 0.5 h)	ED50 ([2]; 1.5 h, 1 h)	LD50 [3]	anti-hypertensive activity (in words) [2]	anti-hypertensive activity (in words) ([2]; listed as laevorotatory isomer)	DL50 (Male Swiss mice; i.p. injection, male Swiss mice, Wilcoxon method)	activity relative to the (-) derivative in blocking the post-synaptic alpha-receptors response to nor-adrenaline ([1]; versus (-) derivative)	activity relative to the (r) compound in blocking the post-synaptic alpha-receptors response to nor-adrenaline ([1]; versus (r) compound)	anti-hypertensive activity (in words) ([2]; listed as dextrorotatory isomer)	toxicity compared with racemic compound (in words) (Male Swiss mice; LD50 values or symptomatology)
CCOC(CN1CCN(c2ccccc2OC)CC1)c1cccnc1 (racemic) [(r), (±) 1-(2-ethoxy-2-ethoxy-2-(3'-pyridyl)ethyl)-4-(o-methoxyphenyl)piperazine]	8.62 ± 0.11	7.8 mg/kg	18.8 mg/kg	75 mg/kg							
CCOC(CN1CCN(c2ccccc2OC)CC1)c1cccnc1 (single isomer, unassigned; (-)) [(-), (-) 1-(2-ethoxy-2-(3'-pyridyl)ethyl)-4-(o-methoxyphenyl)piperazine]	6.95 ± 0.05				quite low activity	almost inactive	68 mg/kg				
CCOC(CN1CCN(c2ccccc2OC)CC1)c1cccnc1 (single isomer, unassigned; (+)) [(+), (+) 1-(2-ethoxy-2-(3'-pyridyl)ethyl)-4-(o-methoxyphenyl)piperazine]	9.04 ± 0.03	5.5 mg/kg	10.9 mg/kg	65 mg/kg	most active form			100 times	~3 times	higher anti-hypertensive activity than the racemic compound	same toxicity of said racemic compound
